In patent US20230119479A1, “A HISTONE DEACETYLASE INHIBITOR HAVING A NITROGEN-CONTAINING AROMATIC HETEROCYCLYL GROUP” (SHIONOGI & CO., LTD., priority 2019, published 2023):
Where two headings read alike, the source gives them in different places.

Assays:
[1] = biological target: T1, HDAC2 Human recombinant C-terminal FLAG-tag (Homo sapiens, UniProt Q92769); assay: Measurement of HDAC2 enzyme inhibitory activity (HTRF); assay type: biochemical; details: recombinant HDAC2, H3K9ac peptide
T1 construct: FLAG (C); purchased BPS Bioscience 50052
Procedure, shortened: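 Compounds were tested at 8 points in 3-fold dilutions from 99 μM final (n=2) against FLAG-tagged HDAC2 with biotinylated H3K9ac (1-21) peptide (0.6 μM as added). The reaction ran 3 h at room temperature in Tris pH 8.0 buffer, then was stopped with SAHA. Deacetylated product was detected by HTRF (Eu-anti-H3K9me0 antibody, streptavidin-XL665) as the 665/615-620 nm ratio.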

[2] = Platelet toxicity test using human blood progenitor cells (WST); assay type: cell-based; details: human bone marrow CD34+ progenitor cells, maximum concentration 25 μM
Protocol: Test Example 2: Platelet Toxicity Test Using Human Blood Progenitor Cells
Human bone marrow CD34+ progenitor cells (Lonza, 2M-101B) stored at −80° C. were thawed, spun down at 150 g for 10 minutes at 20° C., and a medium (StemSpan Expansion Supplement, STEM CELL TECHNOLOGIES, ST-02696) to which cytokines (StemSpan SFEM II, STEM CELL TECHNOLOGIES, ST-09655) was added was added to adjust to 2×10^4/well, the mixture was seeded in 12well non-coat dish (Corning, 3513), was incubated for 10 days at 37° C., 5% CO2. After 10 days, the cells were collected and spun down at 150 g for 10 minutes at 20° C., and a medium (StemSpan Expansion Supplement) containing cytokines (StemSpan SFEM II) was added so that the number of cells became 2×10^5 cells/ml. 50 μl of the cell suspension was seeded to each well of a 96-well plate (Corning, 3596) and allowed to stand overnight in an incubator at 37° C., 5% CO2. The next day, 50 μl of the test compound was treated to each well and allowed to stand for 48 hours in the incubator at 37° C., 5% CO2 (n=2). At this time, the test compound dissolved in 100% DMSO was serially diluted with DMSO at a 3-fold ratio, and then a medium containing cytokine was added to adjust the final concentration to 25, 8.33, 2.78, 0.93, 0.31, 0.1 μM. After that, 10 μl of WST (Cell count reagent SF, Nacalai Tesque Inc., 07553-44) was added to each well, and the mixture was allowed to stand in the incubator for 4 hours at 37° C., 5% CO2, and then the multi-label reader 2030 ARVO X4 (PerkinElmer) was used to measure the absorbance. At this time, the absorbance at 450 nm and the absorbance at 620 nm were obtained, and the difference between 450 nm and 620 nm was used as the measured value. The measured values were analyzed by Excel and TIBCO Spotfire, and IC50 values were calculated. At this time, for control (−), the well without cells was set as n=6 for one row, and the average value was calculated, and for control (+), the well in which DMSO was added to the cells so as to have the same concentration as the compound treatment group was set as n=6 for one row, and the average value was calculated and corrected for each plate. For the test compound, the average value of n=2 was used.

[3] = tested on: HDACs other than HDAC2 (HDAC2 knockout K562 cells); assay: Evaluation of HDAC2 selectivity: H3K9 histone acetylation in HDAC2 knockout K562 cells (AlphaLISA); assay type: cell-based; details: Homo sapiens, maximum concentration 83.3 μM, 100% = SAHA-treated group, read-out: maximum inhibition rate (H3K9 histone acetylation);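 further: 0% inhibition equals DMSO-treated group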
Protocol: Test Example 3: Evaluation of HDAC2 Selectivity
K562 cells were cultured in RPMI1640 medium (SIGMA, R8758) containing 10% FBS (Hyclone, SH30070.03) and 1% penicillin streptomycin (Nacalai Tesque, 26252-94). CompoZr (registered trademark) Zinc Finger Nuclease (Merck) targeting HDAC2 sequences was transfected into K562 cells by electroporation using Nucleofector (Lonza). The cells after transfection were subjected to limiting dilution, and DNA sequencing was performed on the cell clones in which mutations were detected by the PCR method. Cell clones lacking a base number that was not a multiple of 3 in both alleles were identified, and a single-cell cloning was performed on the cell clones to produce HDAC2 knockout K562 cells. It was confirmed that the expression of HDAC2 was not detected by Western blotting in the prepared cells.
By evaluating the H3K9 histone acetylation-enhancing activity of the test compound using HDAC2 knockout K562 cells, the inhibitory activity against HDACs other than HDAC2 was evaluated.
HDAC2 knockout K562 cells stored in liquid nitrogen were thawed and cultured in RPMI1640 medium (Nacalai Tesque, 30264-85) for 2 to 4 days. Using Echo555 (Beckman Coulter), the test compound was dispensed to the assay plate (Corning, 4513) at 37.5 nL/well, and then HDAC2 knockout K562 cells were seeded to 125 cells/4.5 μL/well, and stirred. At this time, the test compound was treated at 8 points (n=2) in the 3-fold dilution series from the maximum concentration of 83.3 μM. After culturing at 37° C. and 5% CO2 overnight, 1.5 μL/well of Lysis buffer (PerkinElmer, AL009F1) was added, and after incubating at room temperature for 15 minutes, 3 μL/well of Extraction buffer (PerkinElmer, AL009F2) was added and the mixture was incubated for 10 minutes at room temperature. Then, 5× antibody solution (prepared by diluting anti-H3K9 Acceptor beads (PerkinElmer, AL114M) 75-fold with a detection buffer prepared by diluting 10×Cell-Histone Detection buffer (PerkinElmer, AL009F3) 10-fold with ultrapure water, and diluting Biotinylated anti H3 antibody (PerkinElmer, AL118M) diluted 150 times with the detection buffer) was added at 3 μL/well, and after incubating at room temperature for 60 minutes, then 5× donor beads solution (prepared by diluting Streptavidin Donor beads (PerkinElmer, 6760002) 75 fold with the detection buffer) was added at 3 μL/well, and the mixture was incubated again at room temperature for 60 minutes, and then the emission value was measured using PHERAstar (BMG LABTECH) (excitation=680 nm, […]). […] For cell toxicity, cell viability rate was evaluated by the PrestoBlue method.

[4] = 3 hours room temperature, read-out: HDAC2 IC50

T1 sequence (Q92769 whole entry): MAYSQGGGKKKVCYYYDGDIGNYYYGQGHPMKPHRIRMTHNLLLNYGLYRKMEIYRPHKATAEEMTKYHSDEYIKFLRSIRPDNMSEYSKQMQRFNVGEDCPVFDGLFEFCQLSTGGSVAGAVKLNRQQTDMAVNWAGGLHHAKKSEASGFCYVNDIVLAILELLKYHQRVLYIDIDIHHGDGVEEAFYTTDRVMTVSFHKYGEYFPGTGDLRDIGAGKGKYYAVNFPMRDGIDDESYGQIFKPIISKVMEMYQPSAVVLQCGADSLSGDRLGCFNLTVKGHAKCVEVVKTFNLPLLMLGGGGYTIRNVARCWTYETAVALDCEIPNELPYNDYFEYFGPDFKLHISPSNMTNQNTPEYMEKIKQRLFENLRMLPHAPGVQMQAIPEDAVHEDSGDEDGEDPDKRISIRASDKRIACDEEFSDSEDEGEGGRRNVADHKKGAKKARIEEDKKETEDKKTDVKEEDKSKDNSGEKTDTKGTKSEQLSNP

Structure (SMILES)	IC50 [1, 4] [nM]	IC50 at 48 h [2] [nM]	inhibition at up to 83.3 µM [3] [%]	IC50 ([1]; read-out: IC50 (HDAC2)) [nM]
Cn1cc(-c2ccc(C(=O)Nc3nc(-c4cccs4)ccc3N)nn2)cn1 [Compound I-028]	230	> 25000	8	
Cn1cc(-c2ccc(N)c(NC(=O)c3cnc(-c4cnn(C)c4)cn3)c2)cn1 [Compound I-036]	160	> 25000	8	
Nc1ccc(-c2ccc(F)nc2)cc1NC(=O)c1ccc(N2CCOCC2)cn1 [Compound I-093]	130	> 25000		
Cn1cc(-c2ccc(N)c(NC(=O)c3ccc(C4CC4)cn3)c2)cn1 [Compound I-112]	200	> 25000		
Nc1ccc(-c2ccc(F)nc2)cc1NC(=O)c1cnc(OCF)cn1 [Compound I-121]	240	> 25000		
Nc1ccc(-c2ccc(F)nc2)cc1NC(=O)c1cnc(OCC2CC2)cn1 [Compound I-122]	250	> 25000	3	
COc1ccc(C(=O)Nc2cc(-c3ccc(F)nc3)ccc2N)nc1 [Compound I-124]	160	> 25000	9	
CCOCCOc1cnc(C(=O)Nc2cc(-c3ccc(F)nc3)ccc2N)cn1 [Compound I-126]	140	> 25000	5	
COCCOc1ccc(C(=O)Nc2cc(-c3ccc(F)nc3)ccc2N)nc1 [Compound I-127]	110	> 25000	7	
Nc1ccc(-c2ccc(F)nc2)cc1NC(=O)c1cnc(C2CC2)cn1 [Compound I-129]	94	> 25000		
Nc1ccc(-c2ccc(F)nc2)cc1NC(=O)c1cnc(OC(F)F)cn1 [Compound I-132]	430	> 25000	6	
CCOc1cnc(C(=O)Nc2cc(-c3cnn(C)c3)ccc2N)cn1 [Compound I-139]	180	> 25000		
Cn1cc(-c2ccc(N)c(NC(=O)c3cc4ccccc4cn3)c2)cn1 [Compound I-141]	230	> 25000	6	
Nc1ccc(-c2ccc(F)nc2)cc1NC(=O)c1ccc(OCF)cn1 [Compound I-142]	180	> 25000	8	
Nc1ccc(-c2ccc(F)nc2)nc1NC(=O)c1cnc(C2CC2)cn1 [Compound I-157]		> 25000	7	
Nc1ccc(-c2ccccc2)nc1NC(=O)c1cnc(C2CC2)cn1 [Compound I-158]		> 25000	7	
Nc1ccc(-n2cccc2)nc1NC(=O)c1ccc(C2CC2)cn1 [Compound I-160]		> 25000	6	
CCc1cnc(C(=O)Nc2cc(-c3cnn(C)c3)ccc2N)cn1 [Compound I-250]	170		5	

Structure (SMILES)	IC50 [1, 4] [nM]	IC50 at 48 h [2] [nM]	inhibition at up to 83.3 µM [3] [%]	IC50 ([1]; read-out: IC50 (HDAC2)) [nM]
COc1ccc(C(=O)Nc2cc(-c3cnn(C)c3)ccc2N)nn1 [Compound I-254]	340		3	
CC(=O)Nc1ccc(C(=O)Nc2cc(-c3ccc(F)nc3)ccc2N)nc1 [Compound I-280]	50		8	
Cn1cc(-c2ccc(N)c(NC(=O)c3cnc(N4Cc5cccnc5C4)cn3)c2)cn1 [Compound I-297]	100			
Nc1ccc(-n2ccc(F)c2)cc1NC(=O)c1cnc(N2CCCOCC2)cn1 [Compound I-298]	130			
CN(C)c1cnc(C(=O)Nc2cc(-n3ccc(F)c3)ccc2N)cn1 [Compound I-299]	120			
Nc1ccc(-n2ccc(F)c2)cc1NC(=O)c1cnc(N2CCC2)cn1 [Compound I-300]	70			
CC(C)Nc1cnc(C(=O)Nc2cc(-n3ccc(F)c3)ccc2N)cn1 [Compound I-301]	310			
Nc1ccc(-n2ccc(F)c2)cc1NC(=O)c1cnc(NCc2ccccn2)cn1 [Compound I-302]	80			
Nc1ccc(-c2ccc(F)nc2)cc1NC(=O)c1cnc(N2CCOCC2)cn1 [Compound I-303]	70			
CCNc1cnc(C(=O)Nc2cc(-c3cnn(C)c3)ccc2N)cn1 [Compound I-304]				70
CC(=O)Nc1ccc(C(=O)Nc2nc(-n3cccc3)ccc2N)nc1 [Compound I-305]				130
CCC(=O)Nc1ccc(C(=O)Nc2cc(-c3ccc(F)nc3)ccc2N)nc1 [Compound I-306]				48
CCC(=O)Nc1ccc(C(=O)Nc2cc(-c3cnn(C)c3)ccc2N)nc1 [Compound I-307]				77
CCC(=O)Nc1ccc(C(=O)Nc2nc(-c3ccccc3)ccc2N)nc1 [Compound I-308]				280
CC(=O)Nc1cnc(C(=O)Nc2cc(-c3cnn(C)c3)ccc2N)cn1 [Compound I-309]				120
CC(=O)Nc1cnc(C(=O)Nc2cc(-c3ccc(F)nc3)ccc2N)cn1 [Compound I-310]				92
CS(=O)(=O)Nc1cnc(C(=O)Nc2cc(-c3ccc(F)nc3)ccc2N)cn1 [Compound I-311]				150
Nc1ccc(-c2cccnc2)cc1NC(=O)c1cnc(N2CCOCC2)cn1 [Compound I-312]				45
